Like-named read-outs stand apart in the source and are kept apart here. Numbered stars: 1 amine (or outer) side, 2 acyl side, 3 side chain; on linkers, the order of the positions; unused ones are H or OH. Square brackets hold non-standard residues; d marks the D form. Side chains are listed from the residue outwards. Peptide text beside a SMILES is read from it. * marks the point of attachment. C20 diacid = O=C(O)CCCCCCCCCCCCCCCCCCC(=O)*; γGlu = O=C(O)[C@H](CCC(=O)[*:2])N[*:1]; AEEA = NCCOCCOCC(=O)O; Aib = CC(C)(N)C(=O)O
What was measured:
GLP1R = GLP1R (Homo sapiens, UniProt P43220); assay: hGLP1R potency, cAMP accumulation in CHO-K1 cells stably overexpressing hGLP1R; format: cell-based; design: host or cells: CHO-K1; conditions: for Selectivity: SCTR EC50/GLP1R EC50 ratio; for EC50: cAMP accumulation, CHO-K1 cells overexpressing hGLP1R; for SCTR EC50/GLP1R EC50 ratio: selectivity for hGLP1R over hSCTR, cAMP accumulation in CHO-K1 cells
GLP1R, sequence (P43220 24-463): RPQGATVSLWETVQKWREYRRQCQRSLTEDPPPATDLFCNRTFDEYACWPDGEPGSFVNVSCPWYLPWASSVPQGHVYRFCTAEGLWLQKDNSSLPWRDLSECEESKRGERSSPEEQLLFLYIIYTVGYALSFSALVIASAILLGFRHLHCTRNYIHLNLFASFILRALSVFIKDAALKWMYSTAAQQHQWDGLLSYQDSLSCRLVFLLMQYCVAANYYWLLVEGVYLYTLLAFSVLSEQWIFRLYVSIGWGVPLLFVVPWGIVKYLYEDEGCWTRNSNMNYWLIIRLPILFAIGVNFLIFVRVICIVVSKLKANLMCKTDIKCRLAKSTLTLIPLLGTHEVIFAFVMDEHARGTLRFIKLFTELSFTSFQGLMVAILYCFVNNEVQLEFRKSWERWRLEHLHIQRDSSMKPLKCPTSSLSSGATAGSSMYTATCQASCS
In short: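 Cells were plated in DPBS with 0.05% casein and 0.5 mM IBMX, then stimulated for 30 min at room temperature with test compound. cAMP was read by TR-FRET after one hour. EC50 came from variable-slope sigmoid nonlinear regression; purified peptides ran as 11-point 3-fold series, n=2.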

[1] = Fibril formation of crude library peptides (Thioflavin T); format: physicochemical; design: key: average ThT fluorescence emission at 480 nm (ex 450 nm), raw units; conditions: Physical stability of peptides
In short: (§1)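 Values reflect mean ThT emission (ex 450, em 480 nm) over 72 h at 40° C, read every 10 min after 5 min shaking at 700 rpm, plus a single initial absorbance at 600 nm for turbidity. Peptides were at 267 μM, pH 4.0 acetate or pH 7.0 phosphate (50 mM), with 4 μM ThT.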

[2] = Turbidity of crude library peptides (absorbance at 600 nm); format: physicochemical; conditions: Physical stability of peptides
In short: as §1

SCTR = SCTR (Homo sapiens, UniProt P47872); assay: hSCTR potency, cAMP accumulation in CHO-K1 cells stably overexpressing hSCTR; format: cell-based; design: alternatively Euroscreen ES-712-AF; FAST-0161L; host or cells: CHO-K1; conditions: cAMP accumulation, CHO-K1 cells overexpressing hSCTR
SCTR, sequence (P47872 23-440): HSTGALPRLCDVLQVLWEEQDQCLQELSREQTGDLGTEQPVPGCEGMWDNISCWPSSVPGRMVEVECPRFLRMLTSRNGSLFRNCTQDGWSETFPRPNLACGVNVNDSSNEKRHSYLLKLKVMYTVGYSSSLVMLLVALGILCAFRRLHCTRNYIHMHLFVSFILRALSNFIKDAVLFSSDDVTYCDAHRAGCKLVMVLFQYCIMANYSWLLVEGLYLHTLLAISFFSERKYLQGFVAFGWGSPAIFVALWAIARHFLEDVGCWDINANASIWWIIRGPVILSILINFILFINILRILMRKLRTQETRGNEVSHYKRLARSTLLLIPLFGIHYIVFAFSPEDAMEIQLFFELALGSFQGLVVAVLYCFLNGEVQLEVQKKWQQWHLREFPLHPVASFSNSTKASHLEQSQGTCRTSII
In short: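 Division-arrested CHO-K1 cells stably expressing hSCTR were plated in DPBS with 0.05% casein and 0.5 mM IBMX, then stimulated with test peptide for 30 min at room temperature. cAMP was read by HTRF after one hour. EC50 came from variable-slope sigmoidal nonlinear regression.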

[3] = read-out: pEC50 hGLPR1 (converted)
[4] = read-out: pEC50 hSCTR (converted)
[5] = read-out: hGLP1R pEC50 (converted)
[6] = read-out: hSCTR pEC50 (converted)

In the case of `CC(C)C[C@H](NC(=O)[C@H](Cc1ccccc1)NC(=O)[C@H](CCCNC(=N)N)NC(=O)[C@H](CCC(N)=O)NC(=O)[C@@H](NC(=O)[C@H](C)NC(=O)[C@H](C)NC(=O)[C@H](CCC(=O)O)NC(=O)[C@H](CCC(=O)O)NC(=O)[C@H](CCCCNC(=O)COCCOCCNC(=O)COCCOCCNC(=O)CC[C@H](NC(=O)CCCCCCCCCCCCCCCCCCC(=O)O)C(=O)O)NC(=O)[C@H](CC(C)C)NC(=O)[C@H](CCC(=O)O)NC(=O)[C@H](CO)NC(=O)[C@@H](NC(=O)[C@H](CC(=O)O)NC(=O)[C@H](CO)NC(=O)[C@@H](NC(=O)[C@H](Cc1ccccc1)NC(=O)[C@@H](NC(=O)CNC(=O)[C@H](CCC(=O)O)NC(=O)C(C)(C)NC(=O)[C@@H](N)Cc1c[nH]cn1)[C@@H](C)O)[C@@H](C)O)C(C)C)[C@@H](C)O)C(=O)N[C@@H](CCC(=O)O)C(=O)N[C@@H](Cc1c[nH]cn1)C(=O)N[C@@H](CC(C)C)C(=O)N[C@H](C(N)=O)C(C)C` [compound 55] (H-H[Aib]EGTFTSDVSELK([AEEA-AEEA-γGlu-C20 diacid])EEAATQRFLEHLV-NH2), the Selectivity (GLP1R) is reported as 16315, the EC50 (GLP1R; [3]) is reported as 0.01 nM and the Fibril formation [1] is reported as 6162. The “Turbidity (pH 7)” value [2] was 0.09 and the EC50 (SCTR; [4]) was 158 nM.
For `CC(C)C[C@H](NC(=O)[C@H](Cc1ccccc1)NC(=O)[C@H](CCCNC(=N)N)NC(=O)[C@H](CCC(N)=O)NC(=O)[C@H](CCC(N)=O)NC(=O)[C@H](C)NC(=O)[C@H](C)NC(=O)[C@H](Cc1ccccc1)NC(=O)[C@H](CCC(=O)O)NC(=O)[C@H](CCCCNC(=O)COCCOCCNC(=O)COCCOCCNC(=O)CC[C@H](NC(=O)CCCCCCCCCCCCCCCCCCC(=O)O)C(=O)O)NC(=O)[C@H](CC(C)C)NC(=O)[C@H](Cc1ccc(O)cc1)NC(=O)[C@H](CO)NC(=O)[C@@H](NC(=O)[C@H](CC(=O)O)NC(=O)[C@H](CO)NC(=O)[C@@H](NC(=O)[C@H](Cc1ccccc1)NC(=O)[C@@H](NC(=O)CNC(=O)[C@H](CCC(=O)O)NC(=O)C(C)(C)NC(=O)[C@@H](N)Cc1c[nH]cn1)[C@@H](C)O)[C@@H](C)O)C(C)C)C(=O)N[C@@H](CCC(=O)O)C(=O)N[C@@H](Cc1c[nH]cn1)C(=O)N[C@@H](CC(C)C)C(=O)N[C@H](C(N)=O)C(C)C` [compound 76] (H-H[Aib]EGTFTSDVSYLK([AEEA-AEEA-γGlu-C20 diacid])EFAAQQRFLEHLV-NH2), the Selectivity (GLP1R) was 122180, the EC50 (GLP1R; [3]) was 0.0794 nM and the Fibril formation [1] was 20479. The “Turbidity (pH 7)” value [2] was 0.08 and the EC50 (SCTR; [4]) was 10000 nM.
For `CC(C)C[C@H](NC(=O)[C@H](Cc1ccccc1)NC(=O)[C@H](CCCNC(=N)N)NC(=O)[C@H](CCC(N)=O)NC(=O)C(C)(C)NC(=O)[C@H](C)NC(=O)[C@H](C)NC(=O)[C@H](CCC(=O)O)NC(=O)[C@H](CCC(=O)O)NC(=O)[C@H](CCCCNC(=O)COCCOCCNC(=O)COCCOCCNC(=O)CC[C@H](NC(=O)CCCCCCCCCCCCCCCCCCC(=O)O)C(=O)O)NC(=O)[C@H](CC(C)C)NC(=O)[C@H](CCCNC(=N)N)NC(=O)[C@H](CO)NC(=O)[C@@H](NC(=O)[C@H](CC(=O)O)NC(=O)[C@H](CO)NC(=O)[C@@H](NC(=O)[C@H](Cc1ccccc1)NC(=O)[C@@H](NC(=O)CNC(=O)[C@H](CCC(=O)O)NC(=O)C(C)(C)NC(=O)[C@@H](N)Cc1c[nH]cn1)[C@@H](C)O)[C@@H](C)O)C(C)C)C(=O)N[C@@H](CCC(=O)O)C(=O)N[C@@H](Cc1c[nH]cn1)C(=O)N[C@@H](CC(C)C)C(=O)N[C@H](C(N)=O)C(C)C` [compound 1] (H-H[Aib]EGTFTSDVSRLK([AEEA-AEEA-γGlu-C20 diacid])EEAA[Aib]QRFLEHLV-NH2), the Selectivity (GLP1R) was 4325, the EC50 (GLP1R; [3]) was 0.0398 nM and the Fibril formation [1] was 11494. For the same compound, the “Turbidity (pH 7)” value [2] was 0.08 and the EC50 (SCTR; [4]) was 158 nM.
In the case of `CC(C)C[C@H](NC(=O)[C@H](Cc1ccccc1)NC(=O)[C@H](CCCNC(=N)N)NC(=O)[C@H](CCC(N)=O)NC(=O)[C@H](CC(C)C)NC(=O)C(C)(C)NC(=O)[C@H](C)NC(=O)[C@H](CCC(=O)O)NC(=O)[C@H](CCC(=O)O)NC(=O)[C@H](CCCCNC(=O)COCCOCCNC(=O)COCCOCCNC(=O)CC[C@H](NC(=O)CCCCCCCCCCCCCCCCCCC(=O)O)C(=O)O)NC(=O)[C@H](CC(C)C)NC(=O)[C@H](Cc1c[nH]c2ccccc12)NC(=O)[C@H](CO)NC(=O)[C@@H](NC(=O)[C@H](CC(=O)O)NC(=O)[C@H](CO)NC(=O)[C@@H](NC(=O)[C@H](Cc1ccccc1)NC(=O)[C@@H](NC(=O)CNC(=O)[C@H](CCC(=O)O)NC(=O)C(C)(C)NC(=O)[C@@H](N)Cc1c[nH]cn1)[C@@H](C)O)[C@@H](C)O)C(C)C)C(=O)N[C@@H](CCC(=O)O)C(=O)N[C@@H](Cc1c[nH]cn1)C(=O)N[C@@H](CC(C)C)C(=O)N[C@H](C(N)=O)C(C)C` [compound 174] (H-H[Aib]EGTFTSDVSWLK([AEEA-AEEA-γGlu-C20 diacid])EEA[Aib]LQRFLEHLV-NH2), the EC50 (GLP1R; [5]) is reported as 0.0126 nM, the “SCTR EC50/GLP1R EC50 ratio” value (GLP1R) is reported as 7022 and the Fibril formation [1] is reported as 3729. The “Turbidity (pH 7)” value [2] was 0.08 and the EC50 (SCTR; [6]) was 100 nM.
`CC(C)C[C@H](NC(=O)[C@H](Cc1ccccc1)NC(=O)[C@H](CCCNC(=N)N)NC(=O)[C@H](CCC(N)=O)NC(=O)[C@H](C)NC(=O)[C@H](C)NC(=O)[C@H](C)NC(=O)C(C)(C)NC(=O)[C@H](CCC(=O)O)NC(=O)[C@H](CCCCNC(=O)COCCOCCNC(=O)COCCOCCNC(=O)CC[C@H](NC(=O)CCCCCCCCCCCCCCCCCCC(=O)O)C(=O)O)NC(=O)[C@H](CC(C)C)NC(=O)[C@H](CCCNC(=N)N)NC(=O)[C@H](CO)NC(=O)[C@@H](NC(=O)[C@H](CC(=O)O)NC(=O)[C@H](CO)NC(=O)[C@@H](NC(=O)[C@H](Cc1ccccc1)NC(=O)[C@@H](NC(=O)CNC(=O)[C@H](CCC(=O)O)NC(=O)C(C)(C)NC(=O)[C@@H](N)Cc1c[nH]cn1)[C@@H](C)O)[C@@H](C)O)C(C)C)C(=O)N[C@@H](CCC(=O)O)C(=O)N[C@@H](Cc1c[nH]cn1)C(=O)N[C@@H](CC(C)C)C(=O)N[C@H](C(N)=O)C(C)C` [compound 81] (H-H[Aib]EGTFTSDVSRLK([AEEA-AEEA-γGlu-C20 diacid])E[Aib]AAAQRFLEHLV-NH2) gave a Selectivity (GLP1R) of 1217, an EC50 (GLP1R; [3]) of 0.0794 nM and a Fibril formation [1] of 10620. The “Turbidity (pH 7)” value [2] was 0.08 and the EC50 (SCTR; [4]) was 79.4 nM.
With `CC(C)C[C@H](NC(=O)[C@H](Cc1ccccc1)NC(=O)[C@H](CCCNC(=N)N)NC(=O)[C@H](CCC(N)=O)NC(=O)[C@H](CC(C)C)NC(=O)C(C)(C)NC(=O)[C@H](C)NC(=O)[C@H](CCC(=O)O)NC(=O)[C@H](CCC(=O)O)NC(=O)[C@H](CCCCNC(=O)COCCOCCNC(=O)COCCOCCNC(=O)CC[C@H](NC(=O)CCCCCCCCCCCCCCCCCCC(=O)O)C(=O)O)NC(=O)[C@H](CC(C)C)NC(=O)[C@H](CC(N)=O)NC(=O)[C@H](CO)NC(=O)[C@@H](NC(=O)[C@H](CC(=O)O)NC(=O)[C@H](CO)NC(=O)[C@@H](NC(=O)[C@H](Cc1ccccc1)NC(=O)[C@@H](NC(=O)CNC(=O)[C@H](CCC(=O)O)NC(=O)C(C)(C)NC(=O)[C@@H](N)Cc1c[nH]cn1)[C@@H](C)O)[C@@H](C)O)C(C)C)C(=O)N[C@@H](CCC(=O)O)C(=O)N[C@@H](Cc1c[nH]cn1)C(=O)N[C@@H](CC(C)C)C(=O)N[C@H](C(N)=O)C(C)C` [compound 136] (H-H[Aib]EGTFTSDVSNLK([AEEA-AEEA-γGlu-C20 diacid])EEA[Aib]LQRFLEHLV-NH2) the EC50 (GLP1R; [5]) was 0.0126 nM, the “SCTR EC50/GLP1R EC50 ratio” value (GLP1R) was 857 and the Fibril formation [1] was 3353. For the same compound, the “Turbidity (pH 7)” value [2] was 0.08 and the EC50 (SCTR; [6]) was 12.6 nM.
With `CC(C)C[C@H](NC(=O)[C@H](Cc1ccccc1)NC(=O)[C@H](CCCNC(=N)N)NC(=O)[C@H](CCC(N)=O)NC(=O)[C@H](CC(C)C)NC(=O)C(C)(C)NC(=O)[C@H](C)NC(=O)[C@H](CCC(=O)O)NC(=O)[C@H](CCC(=O)O)NC(=O)[C@H](Cc1c[nH]c2ccccc12)NC(=O)[C@H](CC(C)C)NC(=O)[C@H](Cc1ccc(O)cc1)NC(=O)[C@H](CO)NC(=O)[C@@H](NC(=O)[C@H](CC(=O)O)NC(=O)[C@H](CO)NC(=O)[C@@H](NC(=O)[C@H](Cc1ccccc1)NC(=O)[C@@H](NC(=O)CNC(=O)[C@H](CCC(=O)O)NC(=O)C(C)(C)NC(=O)[C@@H](N)Cc1c[nH]cn1)[C@@H](C)O)[C@@H](C)O)C(C)C)C(=O)N[C@@H](CCC(=O)O)C(=O)N[C@@H](CCCCNC(=O)COCCOCCNC(=O)COCCOCCNC(=O)CC[C@H](NC(=O)CCCCCCCCCCCCCCCCCCC(=O)O)C(=O)O)C(=O)N[C@@H](CC(C)C)C(=O)N[C@H](C(N)=O)C(C)C` [compound 130] (H-H[Aib]EGTFTSDVSYLWEEA[Aib]LQRFLEK([AEEA-AEEA-γGlu-C20 diacid])LV-NH2) the EC50 (GLP1R; [5]) was 0.0316 nM, the “SCTR EC50/GLP1R EC50 ratio” value (GLP1R) was 34990 and the Fibril formation [1] was 4181. For the same compound, the “Turbidity (pH 7)” value [2] was 0.08 and the EC50 (SCTR; [6]) was 1000 nM.

Reference: patent publication US20260201008A1, “SECRETIN-DERIVED GLP1R SELECTIVE AGONISTS” (GUBRA A/S, priority 2023, published 2026)
